Where two headings read alike, the source gives them in different places.
What was measured:
Assay type in all cases: cell-based
[1] = test system: cell lines of human non-small cell lung cancer (H522); assay: In vitro antineoplastic activity, MTT experiment, H522; details: H522 cells, 48 hours, highest concentration tested 31.6 μM (>30: inhibition rate <50%)
Procedure: (§1) MTT, RPM1640 culture medium, fetal bovine serum, 96-well plate, CO2 thermostatic incubator, American BIO-RAD680 microplate reader, cell lines of human non-small cell lung cancer (H522), and cell lines of human brain glioma (U87) were all obtained commercially.
(§2) (1) Cell inoculation: A single cell suspension was prepared with culture media supplemented with 10% fetal bovine serum, plated into a 96-well plate with 5000 cells per well, each well having a volume of 100 μL, and cultured overnight.
(§3) (2) Preparation of compound solutions: a DMSO stock solution of a compound was diluted on a sterile bench with a culture medium into 5 concentrations to be tested, wherein a double dilution was employed between two adjacent concentrations.
(§4) (3) The compound solutions of various concentrations were added into the 96-well plate cultured overnight, with 100 μL added per well, triplicated wells for each concentration. Since the peripheral wells can have edge effect and are susceptible to contamination, no cells or compounds were added thereto; instead, 100 μL culture solution was added as a blank. Additionally, 100% wells were set to contain the cells and 100 μL culture media without any compound. The plates were incubated in a thermostatic incubator at 37° C. for 48 hours.
(§5) (4) Staining: 10 μL MTT solution (5 mg/mL, prepared with PBS) was added into the 96-well plate for staining. After incubation for 4 hours, centrifugation was performed at 2500 rpm for 10 minutes. Then, a multiple pipette was used to suck the culture solution out of the wells carefully without sucking out the cells while the pipette tip faced downward. 150 μL DMSO was added and shaken on a shaker for 5-10 minutes. Crystals were allowed to dissolve fully, and an OD value for each well was measured using the microplate reader at 570 nm. The inhibition rate was calculated as follows: Inhibition rate (%)=(average OD value of 100% wells−average OD value of compound wells)/(average OD value of 100% wells−average OD value of blank wells)×100%

[2] = test system: cell lines of human brain glioma (U87); assay: In vitro antineoplastic activity, MTT experiment, U87
Procedure: as §1, §2, §3, §4, §5

[3] = test system: human glioma U87 cells; assay: Tumor cell vacuolization (methuosis) scoring, U87; set-up: key to Vacuolation Score: 5 scores were given when obvious vacuolization occurred at 10 nM; 4 scores at 31.6 nM; 3 scores at 100 nM; 2 scores at 316 nM; 1 score at 1000 nM; 0 score was given if no vacuolation occurred at any concentration; details: U87 cells; for Vacuolation Score: 0.01-3.160 μM, 96 hours, microscope
Procedure: FIG. 2. Vacuolization of tumor cells. 100 microliter culture medium (RPMI1640, 2 mmol glutamine, 10% fetal bovine serum) containing 10^3 human colon adenocarcinoma cells (HCT15) or human brain glioma cells (U87) and a solvent DMSO control or 100 nM #40 compound (L16) was plated into a 96-well cell culture plate, and cell morphological image was taken under a phase contrast microscope after cultured at 5% CO2 and 37° C. for 96 hours.
Some cells gradually became round and eventually bursted. These changes are consistent with the features of cell death by methuosis (FIG. 2).
In order to compare the ability of different compounds to cause cell vacuolization, 100 μL culture media (RPMI1640, 2 mmol glutamine, 10% fetal bovine serum) comprising 10^3 human glioma U87 cells and final concentrations of 0.01, 0.0316, 0.1, 0.316, 1.0, 3.160 μM respectively of the compounds to be tested were inoculated into a 96-well culture plate. After cultured at 5% CO2 and 37° C. for 96 hours, cell morphology was observed under a high-magnification microscope, and the ability of the compounds to cause cell vacuolization was scored. 5 scores were given when obvious vacuolization occurred at 10 nM, 4 scores at 31.6 nM, 3 scores at 100 nM, 2 scores at 316 nM, 1 score at 1000 nM, and 0 score was given if no vacuolation occurred at any concentration.

[4] = U87 cells, MTT, 48 hours, highest concentration tested 31.6 μM, read-out: IC50(μM) U87
[5] = ability to inhibit cell proliferation, U87 (FIG. 3), unit inferred, read-out: IC50

Row | IC50 [1] [µM] | IC50 [2, 4] [µM] | IC50 [2, 5] [µM] | IC50 ([2]; Homo sapiens, ability to inhibit cell proliferation, U87 (FIG. 3), unit inferred, read-out: IC50) [µM] | Structure (SMILES) | Vacuolation Score [3] | ability to cause cell vacuolization (in words) ([3]; among the compounds tested)
1 | 2.18 ± 0.23 | 4.92 ± 0.16 | 4.92 | – | O=C(Nc1ccc(Cl)cc1)Nc1ccc(Nc2nc(/C=C/c3ccc(Cl)cc3)nc(N3CCOCC3)n2)cc1 [L10, (E)-1-(4-chlorophenyl)-3-(4-(4-(morpholin-1-yl)-6-(4-chlorostyrenyl)-1,3,5-triazinyl-2-amino)phenyl)urea] | 3 (3 scores at 100 nM) | –
2 | 5.03 ± 0.4 | 2.48 ± 0.44 | 2.8 | – | CN(C)CCNC(=O)c1ccc(NC(=O)Nc2ccc(Nc3nc(/C=C/c4ccccc4)nc(N4CCOCC4)n3)cc2)cc1 [L32, (E)-N-(2-(dimethylamino)ethyl)-4-(3-(4-(4-(morpholin-1-yl)-6-styrenyl-1,3,5-triazinyl-2-amino)phenyl)urea)benzamide] | 4.5 | –
3 | 2.31 ± 0.17 | 1.21 ± 0.07 | 1.21 | – | CN1CCN(c2nc(/C=C/c3cccc([N+](=O)[O-])c3)nc(Nc3ccc(NC(=O)Nc4ccc(Cl)cc4)cc3)n2)CC1 [L18, (E)-1-(4-chlorophenyl)-3-(4-(4-(4-methylpiperazin-1-yl)-6-(3-nitrostyrenyl)-1,3,5-triazinyl-2-amino)phenyl)urea] | 0 | –
4 | 3.69 ± 0.44 | 1.11 ± 0.06 | 1.25 | – | O=C(Nc1ccc(Nc2nc(/C=C/c3ccccc3)nc(N3CCOCC3)n2)cc1)Nc1ccc(C(=O)NCCN2CCCCC2)cc1 [L36, (E)-N-(2-(piperidin-1-yl)ethyl)-4-(3-(4-(4-(morpholin-1-yl)-6-styrenyl-1,3,5-triazinyl-2-amino)phenyl)urea)benzamide] | 1 (1 score at 1000 nM) | –
5 | 5.48 ± 0.76 | 3.95 ± 0.67 | 3.94 | – | CN1CCN(c2nc(/C=C/c3cccc(Cl)c3)nc(Nc3cccc(NC(=O)Nc4ccc(Cl)cc4)c3)n2)CC1 [L26, (E)-1-(4-chlorophenyl)-3-(3-(4-(4-methylpiperazin-1-yl)-6-(3-chlorostyrenyl)-1,3,5-triazinyl-2-amino)phenyl)urea] | 0 | –
6 | 4.14 ± 0.13 | 1.43 ± 0.1 | 2.1 | – | O=C(Nc1ccc(Nc2nc(/C=C/c3ccccc3)nc(N3CCOCC3)n2)cc1)Nc1ccc(C(=O)NCCN2CCCC2)cc1 [L35, (E)-N-(2-(pyrrolidin-1-yl)ethyl)-4-(3-(4-(4-(morpholin-1-yl)-6-styrenyl-1,3,5-triazinyl-2-amino)phenyl)urea)benzamide] | 1 (1 score at 1000 nM) | –
7 | 5.24 ± 1.33 | 0.87 ± 0.08 | 0.9 | – | CC1CCN(C(=O)c2ccc(NC(=O)Nc3ccc(Nc4nc(/C=C/c5ccccc5)nc(N5CCOCC5)n4)cc3)cc2)CC1 [L30, (E)-1-(4-((4-methylpiperidin-1-yl)formyl)phenyl)-3-(4-(4-(morpholin-1-yl)-6-styrenyl-1,3,5-triazinyl-2-amino)phenyl)urea] | 0 | –
8 | 5.25 ± 0.45 | 3.63 ± 0.11 | 3.63 | – | O=C(Nc1ccc(Cl)cc1)Nc1ccc(Nc2nc(/C=C/c3cccc(Cl)c3)nc(N3CCOCC3)n2)cc1 [L6, (E)-1-(4-chlorophenyl)-3-(4-(4-(morpholin-1-yl)-6-(3-chlorostyrenyl)-1,3,5-triazinyl-2-amino)phenyl)urea] | 4 (4 scores at 31.6 nM) | –
9 | 1.44 ± 0.1 | 1 ± 0.06 | 1 | – | O=C(Nc1ccc(Cl)cc1)Nc1cccc(Nc2nc(/C=C/c3ccccc3)nc(N3CCOCC3)n2)c1 [L23, (E)-1-(4-chlorophenyl)-3-(3-(4-(morpholin-1-yl)-6-styrenyl-1,3,5-triazinyl-2-amino)phenyl)urea] | 0 | –
10 | 0.87 ± 0.08 | 2.04 ± 0.09 | 2.04 | – | CN1CCN(c2nc(/C=C/c3ccc(Cl)cc3)nc(Nc3ccc(NC(=O)Nc4ccc(Cl)cc4)cc3)n2)CC1 [L13, (E)-1-(4-chlorophenyl)-3-(4-(4-(4-methylpiperazin-1-yl)-6-(4-chlorostyrenyl)-1,3,5-triazinyl-2-amino)phenyl)urea] | 0 | –
11 | 2.21 ± 0.33 | 3.66 ± 0.55 | 3.66 | – | O=C(Nc1ccc(Cl)cc1)Nc1cccc(Nc2nc(/C=C/c3cccc([N+](=O)[O-])c3)nc(N3CCOCC3)n2)c1 [L27, (E)-1-(4-chlorophenyl)-3-(3-(4-(morpholin-1-yl)-6-(3-nitrostyrenyl)-1,3,5-triazinyl-2-amino)phenyl)urea] | 0 | –
12 | 3.26 ± 0.34 | 4.79 ± 0.55 | 3.53 | – | O=C(Nc1ccc(Cl)cc1)Nc1ccc(Nc2nc(/C=C/c3ccccc3)nc(N3CCOCC3)n2)cc1 [L1, (E)-1-(4-chlorophenyl)-3-(4-(4-(morpholin-1-yl)-6-styrenyl-1,3,5-triazinyl-2-amino)phenyl)urea] | 5 (5 scores were given when obvious vacuolization occurred at 10 nM) | strongest ability to cause cell vacuolization
13 | – | – | – | – | O=C(Nc1ccc(Nc2nc(/C=C/c3ccccc3)nc(N3CCOCC3)n2)cc1)Nc1ccc(C(=O)O)cc1 [compound 14, (E)-1-(4-carboxyphenyl)-3-(4-(4-(morpholin-1-yl)-6-styrenyl-1,3,5-triazinyl-2-amino)phenyl)urea] | 1.5 | –
14 | 5.03 ± 0.89 | 3.32 ± 0.45 | 3.28 | – | O=C(Nc1ccc(Cl)cc1)Nc1ccc(Nc2nc(/C=C/c3ccccc3)nc(N3CC(O)C3)n2)cc1 [L5, (E)-1-(4-chlorophenyl)-3-(4-(4-(3-hydroxyazetidin-1-yl)-6-styrenyl-1,3,5-triazinyl-2-amino)phenyl)urea] | 0 | –
15 | 4.91 ± 0.1 | 2.31 ± 0.29 | 3 | – | CN(C)CCCNC(=O)c1ccc(NC(=O)Nc2ccc(Nc3nc(/C=C/c4ccccc4)nc(N4CCOCC4)n3)cc2)cc1 [L34, (E)-N-(3-(dimethylamino)propyl)-4-(3-(4-(4-(morpholin-1-yl)-6-styrenyl-1,3,5-triazinyl-2-amino)phenyl)urea)benzamide] | 3.5 | –
16 | 2.53 ± 0.28 | 2.2 ± 0.21 | 2.2 | – | O=C(Nc1ccc(Cl)cc1)Nc1cccc(Nc2nc(/C=C/c3cccc(Cl)c3)nc(N3CCOCC3)n2)c1 [L25, (E)-1-(4-chlorophenyl)-3-(3-(4-(morpholin-1-yl)-6-(3-chlorostyrenyl)-1,3,5-triazinyl-2-amino)phenyl)urea] | 0 | –
17 | 4.31 ± 0.09 | 1.3 ± 0.05 | 1.9 | – | CCN(CC)CCNC(=O)c1ccc(NC(=O)Nc2ccc(Nc3nc(/C=C/c4ccccc4)nc(N4CCOCC4)n3)cc2)cc1 [L33, (E)-N-(2-(diethylamino)ethyl)-4-(3-(4-(4-(morpholin-1-yl)-6-styrenyl-1,3,5-triazinyl-2-amino)phenyl)urea)benzamide] | 3.5 | –
18 | – | – | – | 3.28 | Cl.O=C(Nc1ccc(Cl)cc1)Nc1ccc(Nc2nc(/C=C/c3cccc([N+](=O)[O-])c3)nc(N3CCOCC3)n2)cc1 [compound 68] | 4 (4 scores at 31.6 nM) | –

Row | Structure (SMILES) | IC50 [1] [µM] | IC50 [2, 4] [µM] | IC50 [2, 5] [µM] | IC50 ([2]; Homo sapiens, ability to inhibit cell proliferation, U87 (FIG. 3), unit inferred, read-out: IC50) [µM] | Vacuolation Score [3] | ability to cause cell vacuolization (in words) ([3]; among the compounds tested)
19 | CN(C)c1nc(/C=C/c2cccc([N+](=O)[O-])c2)nc(Nc2ccc(NC(=O)Nc3ccc(Cl)cc3)cc2)n1 [L20, (E)-1-(4-chlorophenyl)-3-(4-(4-dimethylamino-6-(3-nitrostyrenyl)-1,3,5-triazinyl-2-amino)phenyl)urea] | 5.55 ± 0.4 | 5.12 ± 0.28 | 5.12 | – | 0 | –
